Data on 2 molecules can be found in patent US20220008406A1, “USE OF NUCIFERIN AND LOTUS LEAF EXTRACT IN THE PREPARATION OF A MEDICAMENT FOR TREATING ATROPHIC GASTRITIS AND/OR BLOCKING TRANSFORMATION OF GASTRITIS INTO CANCER” (priority 2018, published 2022).

The structures appear in SMILES notation. “Also recorded” adds a separate entry of the source.

The test system of test [1] is colon cancer. The following applies: people who take aspirin for a long time; cited from earlier work.
In test [2] the test system is rats with chronic atrophic gastritis. Briefly: Nuciferine treatment of rats with chronic atrophic gastritis with intestinal metaplasia induced by sodium deoxycholate and ammonia water. Type of test: in vivo, SD rats. The following applies: for pathological state of chronic atrophic gastritis, HE-stained gastric tissue sections: 4 weeks after 8 weeks modeling, vs model group. From the text:
An animal model of chronic atrophic gastritis induced by sodium deoxycholate and ammonia water was selected. After the model was successfully established, celecoxib and nuciferine were given by gavage.
The experiment: The experimental animals were from Beijing Weitong Lihua Laboratory Animal Technology Co., Ltd. Thirty SD rats with a specific pathogen free (SPF) grade of 200±20 g were selected, with half males and half males, and randomly divided into […]: normal control group, chronic atrophic gastritis (CAG) model group, the positive drug celecoxib intervention group and the nuciferine intervention group, with 6 rats in each group. The nuciferine was purchased from Chengdu Refines Biotechnology Co., Ltd., with a specification of 5 g and a purity of over 98%. Celecoxib was purchased from Beijing Bailingwei Technology Co., Ltd., with brand J&K, a specification of 1 g, and purity above 98%. Sodium deoxycholate was purchased from Amresco, USA, with a specification of 100 g. The rats in the model group, celecoxib intervention group and nuciferine intervention group were given sodium deoxycholate solution and ammonia to induce chronic atrophic gastritis. 20 mmol/L sodium deoxycholate was administered […] at a dose of 6 ml/kg, twice a week on an empty stomach, 0.1% ammonia water was drunk freely, and the model was continuously modeled for 8 weeks. […] After modeling, the celecoxib group and the nuciferine intervention group were given celecoxib 10 mg/kg, nuciferine 40 mg/kg, and 10 mg/kg by gavage administration, once a day. During the experiment, the rats' body weight and food intake were observed.
At the end of the dosing experiment, after the rats were sacrificed by dislocation, the stomach tissue was quickly taken out and prepared for pathological sectioning. The obtained gastric tissue was cut along the greater curvature of the stomach, washed with saline, blotted dry with filter paper, and fixed with formalin solution (10% formaldehyde solution). The sections were embedded, dehydrated by alcohol, and then made transparent with xylene. And then the sections were waxed and embed in paraffin. In the staining stage, the sections were soaked in xylene solution for 10 minutes each time for 3 times; then they were soaked in absolute ethanol and rinsed in tap water. Finally, the sections were stained with hematoxylin (to stain the nucleus) and eosin (to stain the cytoplasm), and the sections were mounted with neutral gum. Finally, the pathological changes of rat stomach tissue were observed under light microscope.

For test [3], the system named is gastric mucosal injury model rats. Description: Protection against gastric mucosal damage induced by absolute ethanol in rats. Type of test: in vivo, SD rats. As to conditions: for congestion and bleeding of the gastric mucosa: then 1.0 mL absolute ethanol. From the text: After continuous administration of […] and […] in rats, gastric mucosal damage was induced by absolute ethanol, and the gastric mucosal damage was observed under a microscope after dissection.
The experimental: The experimental animals were from Beijing Sibeifu Biotechnology Co., Ltd., and 30 SD rats of 200±20 g specific pathogen free (SPF) grade, male, were chosen and randomly divided into 5 groups: normal control group, the gastric mucosal injury model group, the nuciferine low-dose group, the nuciferine high-dose group and the lotus leaf extract group, as shown in Table 3. The low-dose nuciferine group, the high-dose nuciferine group and the lotus leaf extract group were administered intragastrically for 14 days, once a day. The nuciferine was purchased from Chengdu Refines Biotechnology Co., Ltd., with a specification of 5 g and a purity of over 98%. The lotus leaf extract was purchased from Hebei Chenguang Biotechnology Group Handan Co., Ltd., with a specification of 1 kg and a content of nuciferine of more than 0.4%. 1 hour after the rats in the low-dose nuciferine group, the high-dose nuciferine group and the lotus leaf extract group were given continuous administration, the rats in the control group and the model group were strictly fasted for 24 hours (with water available), and medicine was also prohibited during this period. Rats in the model group, the low-dose nuciferine group, the high-dose nuciferine group, and the lotus leaf extract group were given 1.0 mL of absolute ethanol per rat by intragastric administration; 1 hour after the completion of the modeling, the rats were sacrificed by blood sampling from the abdominal aorta, and the stomach was taken by cutting the abdomen, was injected with 10% formaldehyde solution, and fixed for 20 minutes, then the stomach was cut along the greater curvature of the same and was washed to remove the stomach contents, and a general observation under a dissecting microscope was conducted and the length of injury (mm) was measured.

Test [4] relates to Drosophila gastrointestinal stem cells. Description: DSS-induced abnormal proliferation of Drosophila gastrointestinal stem cells (esg-GFP). It is filed as in vivo. From the text:
The gastrointestinal tumorigenesis model reported in the publication “Cell Stem Cell” of “Cell” Press was select. Dextran sulfate sodium (DSS) was used to induce abnormal proliferation of Drosophila gastrointestinal stem cells to simulate the process of tumorigenesis. During the modeling period, nuciferine and lotus leaf extract were given.
The experimental: Dextran sulfate sodium (DSS) was used to induce abnormal proliferation of drosophila gastrointestinal stem cells to simulate the process of tumorigenesis. The experimental drosophila were esg-GFP purchased from Tsinghua Drosophila Center. GFP (green fluorescent protein driven by esg-Ga14) can specifically label intestinal stem cells and enteroblasts. A solution containing 20% sucrose, 3% DSS (average molecular weight 40 kDa) and 0.5% dimethyl sulfoxide (DMSO) was prepared, and the solution was mixed with the drosophila food, and the mixture was placed half-dry and was then used to feed the drosophila to perform modeling. During the modeling period, different groups were given nuciferine and lotus leaf extract. The nuciferine was purchased from Chengdu Refines Biotechnology Co., Ltd., with a specification of 5 g and a purity of over 98%. The lotus leaf extract was purchased from Hebei Chenguang Biotechnology Group Handan Co., Ltd., with a specification of 100 g and a nuciferine content of more than 0.4%. Sodium dextran sulfate was purchased from Beijing Zhongkekeao Biotechnology Co., Ltd. with a brand of mp and a specification of 50 g. The dimethyl sulfoxide was purchased from Amresco, USA, with a specification of 500 ml.
1) The Nuciferine Experiment Groups
Model control group: medium+0.5% DMSO+3% DSS
Low-dose nuciferine group: medium+0.5% DMSO+3% DSS+nuciferine 100 μM
High-dose nuciferine group: medium+0.5% DMSO+3% DSS+nuciferine 200 μM
2) The Lotus Leaf Extract Experiment Groups
Lotus leaf extract low-dose group: medium+0.5% DMSO+3% DSS+lotus leaf extract (containing 100 μM […])
Lotus leaf extract medium-dose group: medium+0.5% DMSO+3% DSS+lotus leaf extract (containing 200 μM […]) […]

Test [5] concerns MNNG-GES-1 cells. Briefly: MTT assay on MNNG-stimulated GES-1 cell model of transformation of gastritis to gastric cancer. Type of test: cell-based, human. The following applies: nuciferine 48 h. From the text:
The gastritis cancer transformation model used in this example formed by human gastric epithelial cells (GES-1) induced by chemical mutagens N-methyl N-nitronitrosoguanidine (MNNG) was as reported in the literature. The nuciferine was purchased from Chengdu Refines Biotechnology Co., Ltd., with a specification of 1 g and a purity of over 98%. The MNNG was purchased from Beijing Baiyiyi Chuang Biotechnology Co., Ltd., with a brand Tixiai and a specification of 5 g. The GES-1 cells were purchased from Shanghai Xuran Biotechnology Co., Ltd. The phosphate buffered saline (PBS) was purchased from Amresco, USA, with a specification of 10 L. The dimethyl sulfoxide (DMSO) was purchased from Amresco, USA, with a specification of 500 ml. The fetal bovine serum (FBS) was purchased from Amresco, USA, with a specification of 100 ml. The 3-(4,5-Dimethylthiazole-2)-2,5-diphenyltetrazolium bromide (MTT) was purchased from Shanghai Biyuntian Biotechnology Co., Ltd., with a specification of 500 mg.
GES-1 cells was planted in a 96-well plate (8000 cells/well, leave a row of blank holes, discard the edge holes and add an equal volume of PBS to reduce evaporation), the old solution was aspirated the next day, and 10% FBS containing no double antibody medium was added, […] MNNG was added to induce stimulation, culturing for 24 h in the dark, and discarding the culture medium containing MNNG. […]

Take `CC(=O)Oc1ccccc1C(=O)O` [aspirin]: the “reduction of incidence of colon cancer” value in test [1] is given as 24%.

`COc1cc2c3c(c1OC)-c1ccccc1C[C@H]3N(C)CC2` [nuciferine]: the “pathological state of chronic atrophic gastritis, HE-stained gastric tissue sections” value was “reduced to the state of chronic non-atrophic gastritis” in test [2] (10 mg/kg (celecoxib group; low-dose nuciferine group) by gavage once a day) and “best effect; also recorded: significantly reduced” in test [2] (40 mg/kg (high-dose nuciferine group) by gavage once a day). In test [2] (CAG model rats, therapeutic administration, dose groups not distinguished), the weight of rats entry is “increased the weight of rats”. Further, the “treatment of chronic atrophic gastritis and intestinal metaplasia of rats (pathological slices)” value in test [2] (intervention groups, doses not distinguished) is “effectively treated”. Also, the “gastric mucosal injury of rats compared with the model group” value in test [3] (doses not distinguished) is “significantly improved; also recorded: improved compared with the model group”. The “congestion and bleeding of the gastric mucosa” value in test [3] (nuciferine high-dose 40 mg/kg intragastric once a day 14 days) is “no congestion and bleeding”; in test [3] (nuciferine low-dose 20 mg/kg intragastric once a day 14 days), “reduced”. Further, the “abnormal proliferation of Drosophila gastrointestinal stem cells and mucosal ulceration” value in test [4] (doses not distinguished) is reported as “effectively inhibited”. Further, the “proliferation of drosophila gastrointestinal stem cells” value in test [4] (high-dose nuciferine 200 μM in medium + 0.5% DMSO + 3% DSS, 3-5 days at 25° C.) is on record as “returned to normal”. Further, the “abnormal proliferation of drosophila gastrointestinal stem cells” value in test [4] (low-dose nuciferine 100 μM in medium + 0.5% DMSO + 3% DSS, 3-5 days at 25° C.) is “reduced”. Also, the IC50 in test [5] (Homo sapiens, GES1, GES-1 cells stimulated with MNNG 24 h, read-out: half inhibitory concentration (IC50) on cells transformed from gastritis to gastric cancer) turned out to be 92.7 µM. Moreover, in test [5] (P<0.05), the “viability of MNNG-GES-1 cells” value was “significantly inhibiting”.
